According to US20040166062A1, “Ablation therapy using chemical shift magnetic resonance imaging” (priority 2003, published 2004):

Columns and labels:
[1] = system: hepatocellular carcinoma less than about 3 cm; conditions: randomized, controlled trial, patients with hepatocellular carcinoma less than about 3 cm; cited from earlier work
calf liver = calf liver ex vivo, 8 cc glacial acetic acid injected by hand over 2 minutes
Text: An MRI-compatible, 10 cm, 22-gauge needle was inserted into a calf liver that was placed in a transmit/receive birdcage coil. […] The offset frequency of the chemical saturation pulse was set at 170 Hz. […] A complete 3D data set was acquired every 15 seconds. Scanning parameters were: 20 degree flip angle, TE=4.2 msec, TR=34 msec, matrix=256×128×4, 1 signal average, and 32 kHz receiver bandwidth. A total of 15 temporal phases was acquired, each with approximately 15 second time resolution.
The time after injection appears in seconds in the lower left corner of each frame.

renal tumor = system: renal tumor
Text: (§1) An MR-compatible needle is advanced into the lesions to introduce the ablation agent.

prostate tumor = system: prostate tumor
Text: as §1

lung tumor = system: lung tumor
Text: as §1

breast tumor = system: breast tumor
Text: as §1

[2] = system: unresectable hepatocellular carcinoma
Protocol: After obtaining standard T1 and T2-weighted imaging, an MR-compatible 10 cm long, 22-gauge needle was advanced into the lesions. Baseline imaging was performed using a water-suppressed two-dimensional spoiled gradient-echo pulse sequence. […] The scanning parameters were: 30 degree flip angle, TE=4.2 msec, TR=34 msec, 34-38 cm field-of-view, ±16 kHz receiver bandwidth, 256×128 matrix, and 7 mm slice thickness.

multifocal hepatoma = conditions: Patient 3, post-injection, signal low in intensity
hepatic tumor = test: Paper example: CS-MRI guided chemical ablation of a hepatic tumor; conditions: for outcome of chemical ablation therapy: hepatic tumor, slow injection under CS-MRI
Protocol: as §1
(§2) A patient presents for ethanol ablation therapy of a hepatic tumor. The patient is prepared by placement on the MRI scanner platform and the spectrometer is calibrated for ^13C-labeled ethanol using standard T1 and T2-weighted imaging. An MR-compatible needle is advanced into the lesions to introduce the ablation agent. Dynamic two-dimensional, chemical shift MRI is performed during the slow injection of ^13C-labeled ethanol. The distribution of ^13C-labeled ethanol is then directly visualized using chemical shift MRI.
as §2, with “hot saline” for “ethanol”, “^23Na-labeled saline” for “^13C-labeled ethanol”, “^23Na-labeled saline.” for “^13C-labeled ethanol.”

Q: With `CC(=O)O` [acetic acid] as the compound, how does the “effectiveness of ablation compared with ethanol ablation” value [1] read?
A: more effective than ethanol ablation

Q: What about the “distribution of the agent at the injection site on CS-MRI” value (calf liver) of the same compound?
A: focal accumulation of acetic acid adjacent to the needle tip

Q: And the “outcome of chemical ablation therapy” value (renal tumor)?
A: successful in destroying the tumor

Q: What about the “outcome of chemical ablation therapy” value (prostate tumor) of the same compound?
A: successful in destroying the tumor

Q: And the “outcome of chemical ablation therapy” value (lung tumor)?
A: successful in destroying the tumor

Q: What about the “outcome of chemical ablation therapy” value (breast tumor) of the same compound?
A: successful in destroying the tumor

Q: What about the “size of the lesion versus distribution of the agent” value ([2]; Patient 2) of the same compound?
A: closely matches

Q: And the “extra-hepatic extravasation of the agent” value ([2]; in vivo)?
A: No extra-hepatic extravasation of the agent is observed

Q: For `CCO` [ethanol], which “distribution of the agent on CS-MRI” value (multifocal hepatoma) is on record?
A: focal signal accumulation due to ethanol injection is observed

Q: Which “outcome of chemical ablation therapy” value (hepatic tumor) does the source give for ^13C-labeled acetic acid here?
A: successful in destroying the tumor

Q: What does the source list for ^13C-labeled ethanol?
A: outcome of chemical ablation therapy (hepatic tumor): successful in destroying the tumor; damage to surrounding tissues (hepatic tumor; in vivo): without damage to surrounding tissues
